Structures can show the parent of a compound that is named as a salt.

One test deals with T1, Jak2 (a.a. 828-1132) (Homo sapiens, UniProt O60674).
T1 construct: Jak2 (a.a. 828-1132); His tag (N); made in house; host or cells: insect cells (baculovirus)
Kind of test: In vitro JAK kinase assay (HTRF, phosphorylation of a biotinylated peptide), JAK2, reported as JAK2/JAK1 ratio. In kind it is biochemical.

For test [1], the target named is T2, human JAK1 (a.a. 837-1142) (Homo sapiens, UniProt P23458).
T2 construct: human JAK1 (a.a. 837-1142); His tag (N); made in house; host or cells: insect cells (baculovirus)
T2 sequence (P23458 849-1154): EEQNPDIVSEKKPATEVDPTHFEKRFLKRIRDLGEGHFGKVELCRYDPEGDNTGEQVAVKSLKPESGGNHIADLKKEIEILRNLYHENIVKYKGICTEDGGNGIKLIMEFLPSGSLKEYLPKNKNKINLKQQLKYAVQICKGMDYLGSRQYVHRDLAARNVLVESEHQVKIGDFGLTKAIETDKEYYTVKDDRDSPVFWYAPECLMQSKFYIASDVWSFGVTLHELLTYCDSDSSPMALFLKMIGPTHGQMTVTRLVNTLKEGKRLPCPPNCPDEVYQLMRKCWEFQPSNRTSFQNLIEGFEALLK
Nature of the test: In vitro JAK kinase assay (HTRF, phosphorylation of a biotinylated peptide), JAK1. The format is biochemical. An outline of the steps: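 His-tagged catalytic domains (JAK1 a.a. 837-1142, JAK2 a.a. 828-1132) from insect cells phosphorylate 500 nM biotinylated peptide in 50 mM Tris pH 7.8, 100 mM NaCl, 5 mM DTT; ATP at Km (90 μM JAK1, 30 μM JAK2) or 1 mM, as indicated. 1 h at RT; EDTA stop, HTRF readout; IC50s.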

Setting [2] is: Assay Conditions Km (ATP 90 μM for Jak1, 30 μM for Jak2).
The mark [3] stands for this setting: Assay Conditions Km (ATP 90 μM for Jak1).

T1 sequence (O60674 828-1132): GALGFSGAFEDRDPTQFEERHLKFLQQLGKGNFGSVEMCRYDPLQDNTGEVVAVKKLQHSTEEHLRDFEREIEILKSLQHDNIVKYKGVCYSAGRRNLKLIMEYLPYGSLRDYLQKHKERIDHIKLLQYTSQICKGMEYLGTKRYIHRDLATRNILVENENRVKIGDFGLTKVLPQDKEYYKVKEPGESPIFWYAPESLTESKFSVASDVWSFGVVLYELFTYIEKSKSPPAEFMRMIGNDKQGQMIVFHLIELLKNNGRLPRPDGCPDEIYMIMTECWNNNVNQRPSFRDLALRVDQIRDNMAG

As for `N#CC[C@@H]([C@H]1CCN(c2c(C#N)cccc2C#N)C1)n1cc(-c2ncnc3[nH]ccc23)cn1` [Example 59, 2-((3S)-3-{(1S)-2-cyano-1-[4-(7H-pyrrolo[2,3-d]pyrimidin-4-yl)-1H-pyrazol-1-yl]ethyl}pyrrolidin-1-yl)isophthalonitrile trifluoroacetate salt], on Jak2 (a.a. 828-1132) (Assay Conditions 1 mM ATP), the “JAK2/JAK1 IC50 ratio” value amounted to 6.5. In test [1] (Assay Conditions 1 mM ATP), this compound came in with a concentration for half-maximal inhibition (IC50) of less than 50 nM.
On the same counts, the results for `N#CCC(C1CCN(c2ccc3c(n2)SCC3)C1)n1cc(-c2ncnc3[nH]ccc23)cn1` (single isomer, unassigned) [Example 29, 3-[1-(2,3-dihydrothieno[2,3-b]pyridin-6-yl)pyrrolidin-3-yl]-3-[4-(7H-pyrrolo[2,3-d]pyrimidin-4-yl)-1H-pyrazol-1-yl]propanenitrile] are 12 and less than 50 nM.
Regarding `N#CCC(C1CCN(c2ccnc(C(=O)Nc3ccccc3)c2)C1)n1cc(-c2ncnc3[nH]ccc23)cn1` (single isomer, unassigned) [Example 154, 4-(3-{2-cyano-1-[4-(7H-pyrrolo[2,3-d]pyrimidin-4-yl)-1H-pyrazol-1-yl]ethyl}pyrrolidin-1-yl)-N-phenylpyridine-2-carboxamide], the “JAK2/JAK1 IC50 ratio” value at Jak2 (a.a. 828-1132) (Assay Conditions 1 mM ATP) is on record as more than 11.8. The compound also had an IC50 in test [1] (Assay Conditions 1 mM ATP) of less than 50 nM.
On the same counts, the results for `N#CC[C@@H]([C@H]1CCN(c2nc(S(=O)(=O)CC(F)(F)F)c(F)cc2F)C1)n1cc(-c2ncnc3[nH]ccc23)cn1` [Example 131, (3S)-3-((3S)-1-{3,5-difluoro-6-[(2,2,2-trifluoroethyl)-sulfonyl]pyridin-2-yl}pyrrolidin-3-yl)-3-[4-(7H-pyrrolo[2,3-d]pyrimidin-4-yl)-1H-pyrazol-1-yl]propanenitrile trifluoroacetate] are 8.1 and less than 50 nM.
With `N#CC[C@@H]([C@H]1CCN(c2cccnc2C#N)C1)n1cc(-c2ncnc3[nH]ccc23)cn1` [Example 68, 3-((3S)-3-{(1S)-2-cyano-1-[4-(7H-pyrrolo[2,3-d]pyrimidin-4-yl)-1H-pyrazol-1-yl]ethyl}pyrrolidin-1-yl) pyridine-2-carbonitrile trifluoroacetate salt], on Jak2 (a.a. 828-1132) (Assay Conditions 1 mM ATP), the “JAK2/JAK1 IC50 ratio” value worked out at 8.2. This compound also displayed an IC50 in test [1] (Assay Conditions 1 mM ATP) of less than 50 nM.
For `N#CCC(C1CCN(c2ncc3cccc(Cl)c3n2)C1)n1cc(-c2ncnc3[nH]ccc23)cn1` (centres unmarked) [Example 44, 3-[1-(8-chloroquinazolin-2-yl)pyrrolidin-3-yl]-3-[4-(7H-pyrrolo[2,3-d]pyrimidin-4-yl)-1H-pyrazol-1-yl]propanenitrile trifluoroacetate salt], the “JAK2/JAK1 IC50 ratio” value at Jak2 (a.a. 828-1132) (setting [2]) is reported as 3. Further, the concentration for half-maximal inhibition (IC50) in test [1] (setting [3]) was less than 50 nM.
For `CS(=O)(=O)c1ccnc(N2CC[C@H]([C@H](CC#N)n3cc(-c4ncnc5[nH]ccc45)cn3)C2)c1C#N` [Example 128, 2-((3S)-3-{(1S)-2-cyano-1-[4-(7H-pyrrolo[2,3-d]pyrimidin-4-yl)-1H-pyrazol-1-yl]ethyl}pyrrolidin-1-yl)-4-(methylsulfonyl)nicotinonitrile], the “JAK2/JAK1 IC50 ratio” value at Jak2 (a.a. 828-1132) (Assay Conditions 1 mM ATP) is recorded as 4.7. The IC50 in test [1] (Assay Conditions 1 mM ATP) is less than 50 nM.
On to `CS(=O)(=O)c1nc(F)c(N2CC[C@H]([C@H](CC#N)n3cc(-c4ncnc5[nH]ccc45)cn3)C2)cc1F` [Example 134, (3S)-3-{(3S)-1-[2,5-difluoro-6-(methylsulfonyl)pyridin-3-yl]pyrrolidin-3-yl}-3-[4-(7H-pyrrolo[2,3-d]pyrimidin-4-yl)-1H-pyrazol-1-yl]propanenitrile trifluoroacetate], for which the “JAK2/JAK1 IC50 ratio” value at Jak2 (a.a. 828-1132) (Assay Conditions 1 mM ATP) amounted to 17. In test [1] (Assay Conditions 1 mM ATP), this compound displayed an IC50 of less than 50 nM.
`N#CCC(C1CCN(c2nc3cccc(OC(F)F)c3o2)C1)n1cc(-c2ncnc3[nH]ccc23)cn1` (single isomer, unassigned) [Example 164, 3-(4-(7H-pyrrolo[2,3-d]pyrimidin-4-yl)-1H-pyrazol-1-yl)-3-(1-(7-(difluoromethoxy)benzo[d]oxazol-2-yl)pyrrolidin-3-yl)propanenitrile]: the “JAK2/JAK1 IC50 ratio” value at Jak2 (a.a. 828-1132) (Assay Conditions 1 mM ATP) came out at 10.9. The IC50 in test [1] (Assay Conditions 1 mM ATP) is less than 50 nM.
With `N#CCC(C1CCN(c2ccccc2C#N)C1)n1cc(-c2ncnc3[nH]ccc23)cn1` (centres unmarked) [Example 52, 2-(3-{2-cyano-1-[4-(7H-pyrrolo[2,3-d]pyrimidin-4-yl)-1H-pyrazol-1-yl]ethyl}pyrrolidin-1-yl)benzonitrile trifluoroacetate salt], the “JAK2/JAK1 IC50 ratio” value at Jak2 (a.a. 828-1132) (Assay Conditions 1 mM ATP) is recorded as 2. The IC50 in test [1] (Assay Conditions 1 mM ATP) was less than 50 nM.
Regarding `FCC([C@H]1CCN(c2nc3cccnc3o2)C1)n1cc(-c2ncnc3[nH]ccc23)cn1` (stereo partly drawn) [70 (3S- enantiomer), 2-((3S)-3-{2-fluoro-1-[4-(7H-pyrrolo[2,3-d]pyrimidin-4-yl)-1H-pyrazol-1-yl]ethyl}pyrrolidin-1-yl)[1,3]oxazolo[5,4-b]pyridine phosphoric acid salt], on Jak2 (a.a. 828-1132) (Assay Conditions 1 mM ATP), the “JAK2/JAK1 IC50 ratio” value was determined as 15. In test [1] (Assay Conditions 1 mM ATP), this compound returned an IC50 of less than 50 nM.
Take `COCc1cccc(N2CC[C@H]([C@H](CC#N)n3cc(-c4ncnc5[nH]ccc45)cn3)C2)c1C#N` [Example 112, 2-((S)-3-((S)-1-(4-(7H-pyrrolo[2,3-d]pyrimidin-4-yl)-1H-pyrazol-1-yl)-2-cyanoethyl)pyrrolidin-1-yl)-6-(methoxymethyl)benzonitrile]: the “JAK2/JAK1 IC50 ratio” value at Jak2 (a.a. 828-1132) (Assay Conditions 1 mM ATP) was found to be 35.7. This compound had a half-maximal inhibitory concentration (IC50) in test [1] (Assay Conditions 1 mM ATP) of less than 50 nM.
With `N#CCC(C1CCN(c2nc3cccnc3o2)C1)n1ccc(-c2ncnc3[nH]ccc23)c1` (single isomer, unassigned) [32, Step 2a, enantiomer 1], on Jak2 (a.a. 828-1132) (setting [2]), the “JAK2/JAK1 IC50 ratio” value is 3.7. Besides, the IC50 in test [1] (setting [3]) was less than 50 nM.
For the compound `N#CCC(C1CCN(c2nccc(C#N)c2Cl)C1)n1cc(-c2ncnc3[nH]ccc23)cn1` (racemic) [Example 38, ±3-chloro-2-(3-{2-cyano-1-[4-(7H-pyrrolo[2,3-d]pyrimidin-4-yl)-1H-pyrazol-1-yl]ethyl}pyrrolidin-1-yl)isonicotinonitrile trifluoroacetate], the “JAK2/JAK1 IC50 ratio” value at Jak2 (a.a. 828-1132) (Assay Conditions 1 mM ATP) stood at 3.3. The IC50 in test [1] (Assay Conditions 1 mM ATP) was 50 to 100 nM.
As for `O=S1(=O)CCc2cc(F)c(N3CC[C@H](C(CF)n4cc(-c5ncnc6[nH]ccc56)cn4)C3)nc21` (stereo partly drawn) [Example 86, 4-(1-{2-fluoro-1-[(3S)-1-(5-fluoro-1,1-dioxido-2,3-dihydrothieno[2,3-b]pyridin-6-yl)pyrrolidin-3-yl]ethyl}-1H-pyrazol-4-yl)-7H-pyrrolo[2,3-d]pyrimidine tetrakis(trifluoroacetate)], the “JAK2/JAK1 IC50 ratio” value at Jak2 (a.a. 828-1132) (Assay Conditions 1 mM ATP) was found to be 13.0. This compound also returned a half-inhibitory concentration (IC50) in test [1] (Assay Conditions 1 mM ATP) of less than 50 nM.
As for `N#CCC(C1CCN(c2nc3cccnc3o2)C1)n1cc(-c2ncnc3[nH]ccc23)cn1` (single isomer, unassigned) [Example 13b, 3-(1-[1,3]oxazolo[5,4-b]pyridin-2-ylpyrrolidin-3-yl)-3-[4-(7H-pyrrolo[2,3-d]pyrimidin-4-yl)-1H-pyrazol-1-yl]propanenitrile], the “JAK2/JAK1 IC50 ratio” value at Jak2 (a.a. 828-1132) (setting [2]) is reported as 2.1. Further, in test [1] (setting [3]), the half-maximal inhibitory concentration (IC50) is less than 50 nM.
`N#CC[C@@H]([C@H]1CCN(c2ccnc(C#N)c2C#N)C1)n1cc(-c2ncnc3[nH]ccc23)cn1` [Example 124, 4-((3S)-3-{(1S)-2-cyano-1-[4-(7H-pyrrolo[2,3-d]pyrimidin-4-yl)-1H-pyrazol-1-yl]ethyl}pyrrolidin-1-yl)pyridine-2,3-dicarbonitrile trifluoroacetate]: the “JAK2/JAK1 IC50 ratio” value at Jak2 (a.a. 828-1132) (Assay Conditions 1 mM ATP) is recorded as more than 10.5. This compound also had a concentration for half-maximal inhibition (IC50) in test [1] (Assay Conditions 1 mM ATP) of less than 50 nM.
As to `N#CC[C@@H]([C@H]1CCN(c2ccc(F)c(F)n2)C1)n1cc(-c2ncnc3[nH]ccc23)cn1.O=C(O)C(F)(F)F` [Example 89, (3S)-3-[(3S)-1-(5,6-difluoropyridin-2-yl)pyrrolidin-3-yl]-3-[4-(7H-pyrrolo[2,3-d]pyrimidin-4-yl)-1H-pyrazol-1-yl]propanenitrile trifluoroacetate], on Jak2 (a.a. 828-1132) (Assay Conditions 1 mM ATP), the “JAK2/JAK1 IC50 ratio” value is 3.1. The half-maximal inhibitory concentration (IC50) in test [1] (Assay Conditions 1 mM ATP) was less than 50 nM.
As to `N#CCC(C1CCN(c2nccc(Cl)n2)C1)n1cc(-c2ncnc3[nH]ccc23)cn1` (single isomer, unassigned) [Example 4a, 3-[1-(4-chloropyrimidin-2-yl)pyrrolidin-3-yl]-3-[4-(7H-pyrrolo[2,3-d]pyrimidin-4-yl)-1H-pyrazol-1-yl]propanenitrile], the “JAK2/JAK1 IC50 ratio” value on Jak2 (a.a. 828-1132) (setting [2]) came to 8.8. This compound also yielded an IC50 in test [1] (setting [3]) of less than 50 nM.
For `Cn1ccc2cnc(N3CCC(C(CC#N)n4cc(-c5ncnc6[nH]ccc56)cn4)C3)nc21` (single isomer, unassigned) [Example 17, 3-[1-(7-methyl-7H-pyrrolo[2,3-d]pyrimidin-2-yl)pyrrolidin-3-yl]-3-[4-(7H-pyrrolo[2,3-d]pyrimidin-4-yl)-1H-pyrazol-1-yl]propanenitrile], on Jak2 (a.a. 828-1132) (Assay Conditions 1 mM ATP), the “JAK2/JAK1 IC50 ratio” value is given as 8. This compound also had a concentration for half-maximal inhibition (IC50) in test [1] (Assay Conditions 1 mM ATP) of 100 to 500 nM.
As to `N#CCC(C1CCN(c2ncc3c(c2C#N)SCC3)C1)n1cc(-c2ncnc3[nH]ccc23)cn1` (single isomer, unassigned) [Example 173, 6-(3-{2-cyano-1-[4-(7H-pyrrolo[2,3-d]pyrimidin-4-yl)-1H-pyrazol-1-yl]ethyl}pyrrolidin-1-yl)-2,3-dihydrothieno[3,2-c]pyridine-7-carbonitrile], on Jak2 (a.a. 828-1132) (Assay Conditions 1 mM ATP), the “JAK2/JAK1 IC50 ratio” value is on record as more than 27.3. The same compound came in with an IC50 in test [1] (Assay Conditions 1 mM ATP) of less than 50 nM.
`N#CC[C@@H]([C@H]1CCN(c2ncc(Br)s2)C1)n1cc(-c2ncnc3[nH]ccc23)cn1` [Example 47, (3S)-3-[(3S)-1-(5-bromo-1,3-thiazol-2-yl)pyrrolidin-3-yl]-3-[4-(7H-pyrrolo[2,3-d]pyrimidin-4-yl)-1H-pyrazol-1-yl]propanenitrile trifluoroacetate]: on Jak2 (a.a. 828-1132) (Assay Conditions 1 mM ATP), the “JAK2/JAK1 IC50 ratio” value was 6.9. For the same compound, the concentration for half-maximal inhibition (IC50) in test [1] (Assay Conditions 1 mM ATP) was less than 50 nM.

By IC50 is commonly meant the point on the concentration scale where inhibition reaches its midpoint. A lower IC50 goes with inhibition by little substance.

Values taken from patent US8716303B2, “N-(hetero)aryl-pyrrolidine derivatives of pyrazol-4-yl-pyrrolo[2,3-d]pyrimidines and pyrrol-3-yl-pyrrolo[2,3-d]pyrimidines as janus kinase inhibitors” (Incyte Corporation, priority 2009, dated 2014).
